Legend:
[1] = tested on: Chronic Renal Failure Animal Model; assay: Test using chronic renal failure animal model (nephrectomy + acetic acid application), renal function parameters; type: in vivo, mouse; details: mean±standard error; for Urinary output / Urinary protein: 24 h urine 12 weeks after acetic acid; for BUN / sCr: evaluated 12 weeks after acetic acid; for Ccr: creatinine clearance, 12 weeks after acetic acid
Procedure: A male ddY strain mouse (body weight: 30 g to 40 g) was used. Under anesthesia with isoflurane, the right flank of the mouse was incised, the renal arteries and veins were ligated, and then the right kidney was isolated. After suturing, acrinol was applied to the suture site as a disinfection treatment, and enrofloxacin was subcutaneously administered at 5 mg/kg as a preventive measure against infection, and acetaminophen was subcutaneously administered at 75 mg/kg as an analgesic treatment. After a recovery period of 3 to 4 weeks, the left abdomen of the mouse was incised, 100% acetic acid was applied to both sides of the kidney 10 times. This was defined as one course, and two courses were conducted at 5 minute intervals. After suturing, postoperative treatment was conducted in the same manner as in the removal of one of the kidneys. Considering the effect of surgery, a sham group to which acetic acid was not applied was provided.
4 weeks after the application of acetic acid, SMTP-7 was administered at a dose of 10 mg/kg or 30 mg/kg. The administration was carried out three times a week for 8 consecutive weeks by intraperitoneal administration. In addition, physiological saline was similarly administered to the sham group (without acetic acid application) and the Control group (with acetic acid application).
12 weeks after the application of acetic acid, urine was collected for 24 hours using a metabolic cage, and the urinary output was measured. During collecting urine, water was freely given. After urine collection, blood was collected from the descending aorta, the collected blood was centrifuged at 3000 rpm for 15 minutes, serum was separated, and BUN (urea nitrogen) and sCr (serum creatinine value) were measured. Further, protein and creatinine in the urine were also measured to calculate creatinine clearance (Ccr). BUN was measured using Urea B-test Wako (manufactured by Wako Pure Chemical Industries, Ltd.) and a QuantiChrom Urea Assay Kit (manufactured by Funakoshi Co., Ltd.), sCr was measured using Lab Assay Creatinine (manufactured by Wako Pure Chemical Industries, Ltd.), and urinary protein was measured using a BCA Protein assay kit (Thermo Fisher Scientific).
Renal function was evaluated by measuring BUN, sCr, urinary output, and urinary protein. In addition, urinary creatinine was measured to calculate creatinine clearance (Ccr).
In Table 9, the experimental results are expressed in mean±standard error. With reference to statistically significant difference, an unpaired test between two groups (Student's t-test) was conducted for comparison between two groups, and one-way analysis of variance was conducted and then a Dunnett test was conducted for comparison among multiple groups. In all cases, a significance level of 5% or less (P<0.05) was regarded as significant difference.
The experiment and evaluation were carried out in the same manner as in the SMTP-7 (30 mg/kg) administration group, except that edaravone (30 mg/kg) was administered instead of SMTP-7 in the SMTP-7 (30 mg/kg) administration group.

[2] = tested on: Acute Renal Failure Animal Model; assay: Test using acute renal failure animal model (renal ischemia and reperfusion), renal function parameters; type: in vivo, mouse; details: for Cer: creatinine clearance; for FENa: fractional excretion of sodium; for KW: kidney weight
Description: A male ddY strain mouse (30 g) was used as an experimental animal. Under anesthesia with isoflurane, the right flank was incised about 2 cm to expose the kidney. After ligating the renal arteries and veins and the ureter, the right kidney was isolated.
A recovery period of 2 weeks was given, and then an acute renal failure mouse model was produced. Under anesthesia with isoflurane, the left abdomen was incised about 3 cm to expose the left kidney, and the fat around the renal arteries and veins was removed. The blood flow in the left renal arteries and veins was blocked using an atraumatic clip, and the kidney was left in ischemia for 45 minutes. The blood flow was then reperfused by removing the atraumatic clip, the kidney was returned to the abdominal cavity, and the flank was sutured. Mice similarly subjected to the steps other than the ischemia and reperfusion steps using the atraumatic clip were designated as a sham group (eight mice).
After 15 minutes of the initiation of ischemia, the vehicle, SMTP-7, SMTP-27, SMTP-44D, and edaravone were continuously administered to the femoral vein for 30 minutes.
24 hours after the ischemia and reperfusion processes, urine was collected for 24 hours using a metabolic cage, and the urinary output (UF; μL/min/kg) was measured. During collecting urine, only water was freely given. After urine collection, the body weight of each mouse was measured, and blood was collected from the abdominal aorta under anesthesia with isoflurane. After blood collection, the left kidney was isolated and the fat was removed in physiological saline. The kidney weight (KW; mg/g) was measured, and then the kidney was fixed in a 10% neutral buffered formalin solution for Hematoxylin Eosin (HE) staining.
The collected blood was centrifuged at 800×g for 15 minutes at 25° C. to collect serum. Further, the urine collected using a metabolic cage was also used to evaluate renal function. In order to evaluate parameters in the serum, blood urea nitrogen (BUN; mg/dL) was measured using a QuantiChrom Urea Assay Kit (Funakoshi Co., Ltd.). Serum creatinine concentration (Scr; mg/dL) and urinary creatinine concentration (Ucr; mg/dL) were measured using LabAssay (trademark) Creatinine (manufactured by Wako Pure Chemical Industries, Ltd.), and creatinine clearance (Ccr; mL/min/kg) was calculated. The concentrations of sodium in the serum and urine were measured using Fuji Dry Chem 7000 (manufactured by FUJIFILM Corporation), and fractional excretion of sodium (FENa; %) was calculated. Urinary albumin concentration (Ualb; mg/hr/kg) was measured using Albwel M (manufactured by Cosmo Bio Co., Ltd.).
In Table 11, the experimental results are expressed in mean±standard error in eight mice in each group. For comparison among multiple groups, firstly, one-way analysis of variance (ANOVA) was conducted, and then a Bonferroni test was conducted, if significant difference was recognized. Significant difference was recognized with a significance level of less than 5% (P<0.05).

[3] = 10 mg/kg intraperitoneal three times a week for 8 weeks from 4 weeks after acetic acid
[4] = 30 mg/kg intraperitoneal three times a week for 8 weeks from 4 weeks after acetic acid
[5] = 0.01 mg/kg continuous femoral vein 30 min from 15 min after start of 45 min ischemia, mean±SE, 8 mice
[6] = 0.1 mg/kg continuous femoral vein 30 min from 15 min after start of 45 min ischemia, mean±SE, 8 mice
[7] = 0.1 mg/kg, acute renal failure model
[8] = 1 mg/kg continuous femoral vein 30 min from 15 min after start of 45 min ischemia, mean±SE, 8 mice
[9] = 1 mg/kg, acute renal failure model
[10] = 10 mg/kg continuous femoral vein 30 min from 15 min after start of 45 min ischemia, mean±SE, 8 mice
[11] = 0.01 mg/kg continuous femoral vein 30 min from 15 min after start of 45 min ischemia, mean±SE, 8 mice, 0.01 mg/kg
[12] = 0.1 mg/kg continuous femoral vein 30 min from 15 min after start of 45 min ischemia, mean±SE, 8 mice, 0.1 mg/kg
[13] = 1 mg/kg continuous femoral vein 30 min from 15 min after start of 45 min ischemia, mean±SE, 8 mice, 1 mg/kg
[14] = 10 mg/kg continuous femoral vein 30 min from 15 min after start of 45 min ischemia, mean±SE, 8 mice, 10 mg/kg

CC(C)=CCC/C(C)=C/CC[C@@]1(C)Oc2c(c(O)cc3c2CN(CCC[C@@H](C(=O)O)N2Cc4c(cc(O)c5c4O[C@](C)(CC/C=C(\C)CCC=C(C)C)[C@@H](O)C5)C2=O)C3=O)C[C@@H]1O [SMTP-7]
Urinary output [1, 3]: 0.0986 ± 0.022 mL/min/kg
Urinary protein [1, 3]: 968 ± 137 mg/kg/day
BUN [1, 3]: 80.5 ± 13.3 mg/dL
sCr [1, 3]: 0.71 ± 0.07 mg/dL
Urinary output [1, 4]: 0.0537 ± 0.0128 mL/min/kg
Urinary protein [1, 4]: 527 ± 96.2 mg/kg/day
BUN [1, 4]: 55.1 ± 1.57 mg/dL
sCr [1, 4]: 0.60 ± 0.05 mg/dL
Ccr [1, 3]: 1.95 ± 0.23 mL/min/kg
Ccr ([1]; 30 mg/kg intraperitoneal three times a week for 8 weeks from 4 weeks after acetic acid, 30 mg/kg): 2.66 ± 0.37 mL/min/kg
BUN [2, 5]: 108.8 ± 26.6 mg/dL
Scr [2, 5]: 0.9 ± 0.2 mg/dL
Ualb ([2]; 0.01 mg/kg, acute renal failure model): 1.8 ± 0.3 mg/h/kg
BUN [2, 6]: 125.8 ± 28.7 mg/dL
Scr [2, 6]: 1.0 ± 0.3 mg/dL
UF [2, 7]: 0.0825 ± 0.0088 mL/min/kg
Ualb [2, 7]: 1.1 ± 0.3 mg/h/kg
BUN [2, 8]: 66.0 ± 11.3 mg/dL
Scr [2, 8]: 0.5 ± 0.1 mg/dL
UF [2, 9]: 0.0623 ± 0.0134 mL/min/kg
Ualb [2, 9]: 0.7 ± 0.2 mg/h/kg
BUN [2, 10]: 44.1 ± 2.9 mg/dL
Scr [2, 10]: 0.4 ± 0.0 mg/dL
Ualb ([2]; 10 mg/kg, acute renal failure model): 0.5 ± 0.1 mg/h/kg
Cer [2, 11]: 1.6 ± 0.3 mL/min/kg
Cer [2, 12]: 1.7 ± 0.4 mL/min/kg
Cer [2, 13]: 2.3 ± 0.4 mL/min/kg
Cer [2, 14]: 3.1 ± 0.2 mL/min/kg
FENa [2, 11]: 1.8±0.8%
FENa [2, 12]: 2.3±1.0%
FENa [2, 13]: 1.0±0.2%
FENa [2, 14]: 0.7±0.1%
KW [2, 11]: 14.5 ± 0.6 mg/g
KW [2, 12]: 13.6 ± 1.0 mg/g
KW [2, 13]: 11.2 ± 0.8 mg/g
KW [2, 14]: 11.1 ± 0.4 mg/g
Ualb ([2]; urinary albumin, 0.01 mg/kg continuous femoral vein 30 min from 15 min after start of 45 min ischemia, mean±SE, 8 mice): 1.8 ± 0.3 mg/h/kg
Ualb ([2]; urinary albumin, 0.1 mg/kg continuous femoral vein 30 min from 15 min after start of 45 min ischemia, mean±SE, 8 mice): 1.1 ± 0.3 mg/h/kg
Ualb ([2]; urinary albumin, 1 mg/kg continuous femoral vein 30 min from 15 min after start of 45 min ischemia, mean±SE, 8 mice): 0.7 ± 0.2 mg/h/kg
Ualb ([2]; urinary albumin, 10 mg/kg continuous femoral vein 30 min from 15 min after start of 45 min ischemia, mean±SE, 8 mice): 0.5 ± 0.1 mg/h/kg

Source: patent US20250099427A1, “Drug and Method of Treating or Preventing Renal Disease Using Drug” (Showa University, priority 2018, published 2025)
